Assay results reported in patent US20230339882A1, “SHP2 INHIBITOR AND COMPOSITION AND APPLICATION THEREOF” (Betta Pharmaceuticals Co., Ltd., priority 2020, published 2023).
pIC50: −log10 of the molar value.

Experiments:
[1] = In vitro metabolic stability in liver microsomes, dog; type: in vitro ADME; settings: for microsomal CLint at 2 µM: pH 7.3
[2] = In vitro metabolic stability in liver microsomes, human; type: in vitro ADME; settings: for microsomal CLint at 2 µM: pH 7.3, read-out: CLint (µL/min/mg protein) human
Procedure: (§1) Example D: In Vitro Metabolic Stability of Human and Rat Liver Microsomes Test Buffer Preparation
(§2) Dissolve 1900 mg of MgCl2 in 400 mL of ultrapure water.
(§3) Dissolve 17.42 g K2HPO4 and 13.65 g KH2PO4 into 1000 mL of ultrapure water, respectively. Mix a certain proportion of K2HPO4 and KH2PO4 to adjust the pH to 7.30 ± 0.10.
(§4) Prepare a solution of 10 ng/mL labetalol and 10 ng/mL glyburide in acetonitrile and store at 4° C.
(§5) Prepare 10 mM verapamil (positive control) and test article stock solutions in DMSO. Then, with MeOH/ACN/H2O solution (1:1:2 by volume), diluted to 50 µM and 200 µM working solutions, respectively.
(§6) experiment procedure: • 1) Add 40 µL MgCl2 and 306 µL PBS to 96 wells (set blank control group, positive control group, test compound sample group, and negative control group at the same time) • 2) Add 4 µL of compound working solution to each well (4 µL of PBS buffer for blank group) (Note: the final concentration of DMSO volume in the system is ≤ 0.5%) • 3) Add 10 µL of liver microsomes (concentration: 20 mg/mL) to each well, mix well, and pre-incubate at 37° C. for 10 minutes. • 4) Add 40 µL of 10 mM NADPH working solution to each well to start the reaction (add equal volume of PBS buffer for blank control group and negative control group respectively), the total reaction volume is 400 µL. • 5) Take out 50 µL samples from the above reaction solution at 0, 5, 15, and 45 minutes, and add 400 µL of reaction stop solution to stop the reaction • 6) Shake the sample after the termination of the reaction on a shaker for 5 minutes. • 7) Centrifuge the sample at 3200 rcf for 10 minutes. After the centrifugation is complete, transfer 50 µL of the supernatant to 200 µL of H2O for dilution for LC-MS/MS analysis.
(§7) Calculations of t½ and CLint are performed using the first-order kinetic equations: […]
(§8) where k represents the elimination constant, calculated from a log-linear plot of percentage remaining versus time. t½ represents half-life. Cprotein is the concentration of liver microsomes.

SHP2 = SHP2 (Homo sapiens (Human), UniProt Q06124); test: SHP2 allosteric inhibitory enzyme activity assay (DiFMUP fluorescence); type: biochemical; settings: read-out: SHP2 enzymatic activity IC50
Outline: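 Human SHP2 (0.2 ng) preincubated 1 h at room temperature with 25 µM activating peptide IRS1_pY1172(dPEG8)pY1222 and compound (10-point series from 10 µM) in HEPES/NaCl/KCl/BRIJ-35/EDTA/DTT buffer. DiFMUP then added for 1 h; fluorescence at ex 340/em 450 nm, normalized to no-enzyme and no-inhibitor controls, IC50 from variable-slope fit.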

[3] = In vitro metabolic stability in liver microsomes, monkey; type: in vitro ADME; settings: for microsomal CLint at 2 µM: pH 7.3, read-out: CLint (µL/min/mg protein) monkey
[4] = In vitro metabolic stability in liver microsomes, rat; type: in vitro ADME; settings: for microsomal CLint at 2 µM: pH 7.3, read-out: CLint (µL/min/mg protein) rat
Procedure: as §1, §2, §3, §4, §5, §6, §7, §8

leukemia cells MV-4-11 = test: Cell proliferation assay, CELL TITER-GLO (CTG) luminescence, MV-4-11; type: cell-based
Outline: (§9)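 NCI-H358 (2000 cells/well, ultra-low-attachment plates) and MV-4-11 cells were dosed 24 h after seeding at 1000 nM down to 0.1524 nM (3-fold steps). Viable-cell ATP was read by CellTiter-Glo luminescence after 96 h for NCI-H358 and 120 h for MV-4-11. IC50 came from a variable-slope fit of inhibition versus the 0 nM control.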

[5] = tested on: lung cancer cells NCI-H358; test: Cell proliferation assay, CELL TITER-GLO (CTG) luminescence, NCI-H358; type: cell-based; settings: cultured for 96 hrs
Outline: as §9

[6] = In vitro metabolic stability in liver microsomes, mouse; type: in vitro ADME; settings: for microsomal CLint at 2 µM: pH 7.3, read-out: CLint (µL/min/mg protein) mouse
[7] = Homo sapiens, MV4-11, cultured for 120 hrs
[8] = Homo sapiens, NCI-H358, ultra-low adsorption plate

| SMILES | pIC50 (SHP2) | microsomal CLint at 2 µM ([1]; dog, microsomes) | microsomal CLint at 2 µM [2] | microsomal CLint at 2 µM [3] | microsomal CLint at 2 µM [4] | pIC50 (leukemia cells MV-4-11; [7]) | pIC50 [5, 8] | microsomal CLint at 2 µM [6] | CLint (µL/min/mg protein) dog ([1]; dog, microsomes) | CLint (µL/min/mg protein) dog ([1]; dog liver microsomes) | CLint (µL/min/mg protein) human [2] | CLint (µL/min/mg protein) monkey [3] | CLint (µL/min/mg protein) rat [4] | pIC50 (leukemia cells MV-4-11; cultured for 120 hrs) | pIC50 ([5]; ultra-low adsorption plate) | CLint (µL/min/mg protein) mouse [6] |
| --- | --- | --- | --- | --- | --- | --- | --- | --- | --- | --- | --- | --- | --- | --- | --- | --- |
| N[C@@H]1c2ccccc2CC12CCN(c1ncc(C#CCOc3cccc(C(F)(F)F)c3)nc1CO)CC2 [Compound A13] | 8.24 |  |  |  |  |  |  |  |  | 0.9 µL/min/mg protein | 6.3 µL/min/mg protein | 2.6 µL/min/mg protein | 2.4 µL/min/mg protein | 7.74 | 7.55 | 6.6 µL/min/mg protein |
| NC(=O)c1ccc(OCC#Cc2cnc(N3CCC4(CC3)Cc3ccccc3[C@H]4N)c(CO)n2)cc1 [Compound A17, (S)-4-((3-(5-(1-amino-1,3-dihydrospiro[indene-2,4′-piperidine]-1′-yl)-6-(hydroxymethyl)pyrazin-2-yl)prop-2-yn-1-yl)oxy) benzamide] | 8.62 |  |  |  |  |  |  |  |  | 10.6 µL/min/mg protein | 0.4 µL/min/mg protein | 5.0 µL/min/mg protein | 15.9 µL/min/mg protein | 9.00 | 8.82 | 12.0 µL/min/mg protein |
| N[C@@H]1c2ccccc2CC12CCN(c1ncc(C#CCOc3ccc4c(c3)NC(=O)CC4)nc1CO)CC2 [Compound A22] | 8.34 |  |  |  |  |  |  |  |  | 13.6 µL/min/mg protein | 1.6 µL/min/mg protein | 21.0 µL/min/mg protein | 20.7 µL/min/mg protein | 8.54 | 8.64 | 13.2 µL/min/mg protein |
| Nc1cc(OCC#Cc2cnc(N3CCC4(CC3)Cc3ccccc3[C@H]4N)c(CO)n2)ccn1 [Compound A26, (S)-(3-(1-amino-1,3-dihydrospiro [indene-2,4′-piperidine]-1′-yl)-6-(3-((2-Aminopyridin-4-yl)oxy)prop-1-yn-1-yl)pyrazin-2-yl) methanol] | 8.80 | 1.2 µL/min/mg | 2.2 µL/min/mg | 6.3 µL/min/mg | 9 µL/min/mg | 8.74 | 8.28 | 9.8 µL/min/mg |  |  |  |  |  |  |  |  |
| NC(=O)c1cccc(OCC#Cc2cnc(N3CCC4(CC3)Cc3ccccc3[C@H]4N)c(CO)n2)c1 [Compound A27, (S)-3-((3-(5-(1-amino-1,3-dihydrospiro[indene-2,4′-piperidine]-1′-yl)-6-(hydroxymethyl)pyrazin-2-yl)prop-2-yn-1-yl)oxy)benzamide] | 8.72 | 4.8 µL/min/mg | 4 µL/min/mg | 15.9 µL/min/mg | 7.5 µL/min/mg | 8.85 | 8.82 | 17.7 µL/min/mg |  |  |  |  |  |  |  |  |
| N[C@@H]1c2ccccc2CC12CCN(c1ncc(C#CCNC(=O)c3ccccc3)nc1CO)CC2 [Compound A45] | 8.33 |  |  |  |  |  |  |  |  | 9.6 µL/min/mg protein | 5.2 µL/min/mg protein | 3.2 µL/min/mg protein | 7.9 µL/min/mg protein | 7.70 | 7.40 | 6.3 µL/min/mg protein |
| N[C@@H]1c2ccccc2CC12CCN(c1ncc(C#CCNc3ncco3)nc1CO)CC2 [Compound A60] | 8.80 |  |  |  |  |  |  |  |  | 10.8 µL/min/mg protein | 9.9 µL/min/mg protein | 16.9 µL/min/mg protein | 10.4 µL/min/mg protein | 7.89 | 7.39 | 15.1 µL/min/mg protein |

Now from value to compound, other results behind:

| pIC50 (SHP2) | microsomal CLint at 2 µM ([1]; dog, microsomes) | microsomal CLint at 2 µM [2] | microsomal CLint at 2 µM [3] | microsomal CLint at 2 µM [4] | pIC50 (leukemia cells MV-4-11; [7]) | pIC50 [5, 8] | microsomal CLint at 2 µM [6] | CLint (µL/min/mg protein) dog ([1]; dog, microsomes) | SMILES | CLint (µL/min/mg protein) dog ([1]; dog liver microsomes) | CLint (µL/min/mg protein) human [2] | CLint (µL/min/mg protein) monkey [3] | CLint (µL/min/mg protein) rat [4] | pIC50 (leukemia cells MV-4-11; cultured for 120 hrs) | pIC50 ([5]; ultra-low adsorption plate) | CLint (µL/min/mg protein) mouse [6] |
| --- | --- | --- | --- | --- | --- | --- | --- | --- | --- | --- | --- | --- | --- | --- | --- | --- |
| 8.77 |  |  |  |  |  |  |  | 5.2 µL/min/mg protein | NC(=O)c1ccc(OCC#Cc2cnc(N3CCC4(CC3)Cc3ccccc3[C@H]4N)c(CO)n2)cc1F [Compound A50, (S)-4-((3-(5-(1-amino-1,3-dihydrospiro[indene-2,4′-piperidin]-1′-yl)-6-(hydroxymethy 1)pyrazin-2-yl)prop-2-yn-1-yl)oxy)-2-fluorobenzamide] |  | 7.4 µL/min/mg protein | 5.9 µL/min/mg protein | 11.4 µL/min/mg protein | 8.66 | 8.48 | 3.1 µL/min/mg protein |
| 8.62 |  |  |  |  |  |  |  | 22.2 µL/min/mg protein | N[C@@H]1c2ccccc2CC12CCN(c1ncc(C#CCOc3ccc4c(c3)CNC4=O)nc1CO)CC2 [Compound A51, (S)-5-((3-(5-(1-amino-1,3-dihydrospiro[indene-2,4′-piperidin]-1′-yl)-6-(hydroxymethy 1)pyrazin-2-yl)prop-2-yn-1-yl)oxy)isoindolin-1-one] |  | 9.9 µL/min/mg protein | 26.2 µL/min/mg protein | 12.5 µL/min/mg protein | 9.00 | 9.10 | 16.7 µL/min/mg protein |
| 9.15 | 12.8 µL/min/mg | 12.1 µL/min/mg | 13.7 µL/min/mg | 12.8 µL/min/mg | 8.80 | 8.66 | 10.4 µL/min/mg |  | NC(=O)c1ccc(OCC#Cc2cnc(N3CCC4(CC3)Cc3ccccc3[C@H]4N)c(CO)n2)cc1Cl [Compound A54, (S)-4-((3-(5-(1-amino-1,3-dihydrospiro[indene-2,4′-piperidin]-1′-yl)-6-(hydroxymethyl)pyrazin-2-yl)prop-2-yn-1-yl)oxy)-2-chlorobenzamide] |  |  |  |  |  |  |  |
| 8.57 | 20.7 µL/min/mg | 14.7 µL/min/mg | 20 µL/min/mg | 24.7 µL/min/mg | 8.02 | 7.59 | 14.3 µL/min/mg |  | CN(CC#Cc1cnc(N2CCC3(CC2)Cc2ccccc2[C@H]3N)c(CO)n1)c1ccc(C(N)=O)cc1 [Compound A55, (S)-4-((3-(5-(1-amino-1,3-dihydrospiro[indene-2,4′-piperidin]-1′-yl)-6-(hydroxymethyl)pyrazin-2-yl)prop-2-yn-1-yl)(methyl)amino)benzamide] |  |  |  |  |  |  |  |
| 8.55 | 3.1 µL/min/mg | 2.7 µL/min/mg | 1 µL/min/mg | 14 µL/min/mg | 7.98 |  | 9 µL/min/mg |  | N[C@@H]1c2ccccc2CC12CCN(c1ncc(C#CCOc3ccc(C(O)C(F)(F)F)cc3)nc1CO)CC2 (stereo partly drawn) [Compound A80, 1-(4-((3-(5-((S)-1-amino-1,3-dihydrospiro[indene-2,4′-piperidin]-1′-yl)-6-(hydroxymethyl)pyrazin-2-yl)prop-2-yn-1-yl)oxy)phenyl)-2,2,2-trifluoroethane-1-ol] |  |  |  |  |  |  |  |
|  | 3.9 µL/min/mg | 8.6 µL/min/mg | 4.5 µL/min/mg | 5.3 µL/min/mg | 8.05 | 7.40 | 10.5 µL/min/mg |  | NC(=O)Cn1cc(OCC#Cc2cnc(N3CCC4(CC3)Cc3ccccc3[C@H]4N)c(CO)n2)cn1 [Compound A82, (S)-2-(4-((3-(5-(1-amino-1,3-dihydrospiro[indene-2,4′-piperidin]-1′-yl)-6-(hydroxymethyl)pyrazin-2-yl)prop-2-yn-1-yl)oxy)-1H-pyrazol-1-yl)acetamide] |  |  |  |  |  |  |  |
